Reference: patent US7462480B2, “Stimulation of microbial dechlorination of polychorinated biphenyls with halogenated ethenes” (University of Maryland Biotechnology Institute, priority 2002, dated 2008)

How the values were obtained:
[1] = partially soluble in water; cited from earlier work
DF-1 = assay: anaerobic enrichment culture of PCB dechlorinating bacterium DF-1 with tetrachloroethene; assay type: cell-based, bacterium double flank-dechlorinating strain DF-1
Procedure: (§1) Culture Conditions. A sterile media was prepared composed of at least one of the following components in grams per liter (final concentration) of demineralized water: Na2CO3, 3.0; Na2HPO4, 0.6; NH4Cl, 0.5; cysteine-HCl.H2O, 0.25; Na2S.9H2O, 0.25; resazurin, 0.001. In addition, 1% (v/v) each of vitamin and trace element solutions was added. An anaerobic enrichment culture comprising either O-17 (GenBank Accession #: AF058005; Appl Environ Microbiol. 1998 September; 64(9):3359-67)or DF-1 (GenBank Accession #: AF393781; Appl Environ Microbiol. 2002 February; 68(2):807-12)capable of dechlorination of 2,3,5,6-tetrachlorobiphenyl (2,3,5,6-CB) in the absence of sediment was used in this study. Cultures were incubated at 30° C. in the dark. All gases were passed through a column of reduced copper turnings at 350° C. to remove traces of O2. Media (8 ml) were dispersed into culture tubes (16×160 mm) and sealed with Teflon®-lined butyl stoppers (The West Company, Lionville, Pa.) secured by aluminum crimp collars (Bellco Glass, Inc., Vineland, N.J.).
(§2) Congener 2,3,5,6-tetrachlorobiphenyl (2,3,5,6-CB) was also solubilized in tetrachloroethene and added to a fresh anaerobic enrichment culture comprising either O-17 or DF-1 and was incubated under strict anaerobic conditions at 30° C. in the dark. […]

O-17 = assay: anaerobic enrichment culture of PCB dechlorinating bacterium O-17 with tetrachloroethene; assay type: cell-based, bacterium ortho-dechlorinating strain O-17
Procedure: as §1, §2

[2] = 2,3,5,6-CB solubilized in tetrachloroethene, strict anaerobic conditions, 30° C. in the dark
[3] = PCBs and tetrachloroethene combined, simultaneously dechlorinated

ClC(Cl)=C(Cl)Cl [tetrachloroethene]
solubility in water [1]: up to 1 mM | population growth density relative to culture containing 2,3,5,6-CB alone (DF-1; [2]): increased population growth density | effect on PCB dechlorination (DF-1; [3]): did not inhibit or significantly delay PCB dechlorination | population growth density relative to culture containing 2,3,5,6-CB alone (O-17; [2]): increased population growth density | effect on PCB dechlorination (O-17; [3]): did not inhibit or significantly delay PCB dechlorination
